Source: ChEMBL document CHEMBL4052736, “Synthesis, antioxidant, antifungal, molecular docking and ADMET studies of some thiazolyl hydrazones” (Bioorg Med Chem Lett, 2017)
Values after ≈ are worked out from the molar mass of the structure shown.

Columns and labels:
Format in all cases: functional
[1] = Antioxidant activity assessed as DPPH free radical scavenging activity measured after 15 mins by spectrophotometric method
[2] = test system: Aspergillus flavus; assay: Antifungal activity against Aspergillus flavus assessed as zone of inhibition at 25 ug/ml measured after 24 hrs by well diffusion method; settings: read-out: IZ
[3] = test system: Aspergillus flavus; assay: Antifungal activity against Aspergillus flavus assessed as zone of inhibition at 50 ug/ml measured after 24 hrs by well diffusion method; settings: read-out: IZ
[4] = Antioxidant activity assessed as H2O2 free radical scavenging activity at 100 ug/ml after 10 to 15 mins by spectrophotometric analysis
[5] = test system: Aspergillus flavus; assay: Antifungal activity against Aspergillus flavus assessed as zone of inhibition at 100 ug/ml measured after 24 hrs by well diffusion method; settings: read-out: IZ
[6] = test system: Aspergillus niger; assay: Antifungal activity against Aspergillus niger assessed as zone of inhibition at 50 ug/ml measured after 24 hrs by well diffusion method; settings: read-out: IZ
[7] = test system: Aspergillus niger; assay: Antifungal activity against Aspergillus niger assessed as zone of inhibition at 100 ug/ml measured after 24 hrs by well diffusion method; settings: read-out: IZ
[8] = Antioxidant activity assessed as H2O2 free radical scavenging activity at 40 ug/ml after 10 to 15 mins by spectrophotometric analysis
[9] = Antioxidant activity assessed as DPPH free radical scavenging activity at 20 ug/ml after 15 mins by spectrophotometric method
[10] = Antioxidant activity assessed as H2O2 free radical scavenging activity at 20 ug/ml after 10 to 15 mins by spectrophotometric analysis
[11] = test system: Candida albicans; assay: Antifungal activity against Candida albicans assessed as zone of inhibition at 100 ug/ml measured after 24 hrs by well diffusion method; settings: read-out: IZ
[12] = Antioxidant activity assessed as H2O2 free radical scavenging activity by spectrophotometric analysis
[13] = test system: Candida albicans; assay: Antifungal activity against Candida albicans assessed as zone of inhibition at 50 ug/ml measured after 24 hrs by well diffusion method; settings: read-out: IZ
[14] = test system: Aspergillus flavus; assay: Antifungal activity against Aspergillus flavus after 24 hrs by well diffusion method
[15] = test system: Candida albicans; assay: Antifungal activity against Candida albicans after 24 hrs by well diffusion method
[16] = test system: Candida albicans; assay: Antifungal activity against Candida albicans assessed as zone of inhibition at 25 ug/ml measured after 24 hrs by well diffusion method; settings: read-out: IZ
[17] = Antioxidant activity assessed as DPPH free radical scavenging activity at 40 ug/ml after 15 mins by spectrophotometric method
[18] = Antioxidant activity assessed as H2O2 free radical scavenging activity at 60 ug/ml after 10 to 15 mins by spectrophotometric analysis
[19] = Antioxidant activity assessed as DPPH free radical scavenging activity at 100 ug/ml after 15 mins by spectrophotometric method
[20] = Antioxidant activity assessed as H2O2 free radical scavenging activity at 80 ug/ml after 10 to 15 mins by spectrophotometric analysis
[21] = test system: Aspergillus niger; assay: Antifungal activity against Aspergillus niger after 24 hrs by well diffusion method
[22] = test system: Aspergillus niger; assay: Antifungal activity against Aspergillus niger assessed as zone of inhibition at 25 ug/ml measured after 24 hrs by well diffusion method; settings: read-out: IZ
[23] = Antioxidant activity assessed as DPPH free radical scavenging activity at 60 ug/ml after 15 mins by spectrophotometric method
[24] = Antioxidant activity assessed as DPPH free radical scavenging activity at 80 ug/ml after 15 mins by spectrophotometric method

SMILES	IC50 [1] [µg/mL]	zone of inhibition at 25 µg/mL [2] [mm]	zone of inhibition at 50 µg/mL [3] [mm]	inhibition [4] [%]	zone of inhibition at 100 µg/mL [5] [mm]	zone of inhibition at 50 µg/mL [6] [mm]	zone of inhibition at 100 µg/mL [7] [mm]	inhibition [8] [%]	inhibition [9] [%]	inhibition [10] [%]	zone of inhibition at 100 µg/mL [11] [mm]	IC50 [12] [µg/mL]	zone of inhibition at 50 µg/mL [13] [mm]	MIC [14] [µg/mL]	MIC [15] [µg/mL]	zone of inhibition at 25 µg/mL [16] [mm]	inhibition [17] [%]	inhibition [18] [%]	MIC [21] [µg/mL]	zone of inhibition at 25 µg/mL [22] [mm]	other results
Clc1ccc(/C=N/Nc2nc(-c3ccccc3)cs2)c(Cl)c1	29.307 (≈ 84.2 µM)	12	15	87.4	25	10	11	78.9	76.6	78.1	15	43.712 (≈ 126 µM)	14	< 3.12	3.12 (≈ 8.96 µM)	12	90.2	80.4	12.5 (≈ 35.9 µM)	8	inhibition [19]: 95.8%; inhibition [20]: 83.1%; inhibition [23]: 92.8%; inhibition [24]: 92.6%
Clc1ccc(-c2csc(N/N=C/c3ccc(Cl)cc3Cl)n2)cc1	32.224 (≈ 84.2 µM)	12	15	84.4	16	13	17	76.2	73.9	76	18	43.537 (≈ 114 µM)	15	6.25 (≈ 16.3 µM)	3.12 (≈ 8.15 µM)	10	85.9	80.4	6.12 (≈ 16 µM)	12	inhibition [19]: 92.4%; inhibition [20]: 83.1%; inhibition [23]: 88.9%; inhibition [24]: 92.3%
OC(Cn1cncn1)(Cn1cncn1)c1ccc(F)cc1F [FLUCONAZOLE]	–	15	18	–	20	20	25	–	–	–	28	–	22	< 3.12	< 3.12	15	–	–	< 3.12	14	–
